{"source": "patent US20040152994A1", "about": "“Liver function test” (priority 2001, published 2004)", "test_system": "hepatic glycine conjugation", "conditions": "in vivo", "protocol": "The test is carried out in the morning on an empty stomach after an overnight fast.\nTo equilibrate the body's glycine pool, an oral bolus of 3 g of glycine dissolved in 200 ml of water is given 1 hour prior to tracer administration.\nAt t=0 min, a weight adjusted dose of [^13C−1]-glycine (eg. 150 mg for 44.5 to 95.2 kg body weight) was given orally. Breath samples are taken subsequently every 10 minutes over a period of 300 minutes.\nAt t=160 min, a second dose of [^13C−1]-glycine was given, followed by three equal dozes of sodium benzoate (eg. 284.2 mg) at 170, 180 and 190 minutes.\nBreath samples are measured for ^13CO2 content above base line, ie. the mean of 3 pre-test samples. Time to peak of ^13CO2 exhalation, ^13CO2 exhalation in percentage of given dose [% dose/hour] and cumulative ^13CO2 exhalation over time are determined. Mathematical modelling of the various curves is used to de-convolute the dose recovery curves of parts A and B.\nThe breath test consisted of two parts, A and B, that were at first carried out on 2 consecutive days and later combined into an one-day protocol.\nPart A; After an overnight fast, subjects were given orally a weight adjusted dose of the tracer ^13C-glycine dissolved in water\nPart B: After an, overnight fast, subjects were given orally the same amount of tracer plus an optimised amount of sodium benzoate.\nFor the one-day protocol, part B commenced 130 min after the start of part A.\nBreath samples were collected in 10 min intervals.\n10 volunteers (5 women, 5 men) with no medical history of liver problems were used as control group.\n9 in-patients (6 women, 3 men) with varying stages of liver failure and different disease etiology were tested. Ethical approval for this ^13CO2-breath test, study was sought and obtained from the Tayside Healthboard Ethics Committee."}
{"molecule": "NC[13C](=O)O", "note": "[^13C-glycine, [^13C−1]-glycine]", "values": [{"measurement": "Time to peak PDR in patients compared to the control group", "result": "significantly delayed"}, {"measurement": "highest GCa-value (apparent glycine conjugation) in patients", "result": 23.26, "unit": "%"}, {"measurement": "mean PDRm ratio", "result": 0.59}]}
